{"source": "patent US11260083B2", "about": "“Compositions and methods for treating and preventing graft versus host disease” (The Regents of the University of Michigan, priority 2016, dated 2022)", "key": {"[1]": {"test_system": "allogeneic (C57BL/6J→BALB/c) BMT recipients", "assay": "MHC-mismatched allo-BMT GVHD model with intragastric butyrate", "type": "in vivo, mouse", "protocol": "BMTs were performed as previously described (Reddy, P. et al. A crucial role for antigen-presenting cells and alloantigen expression in graft-versus-leukemia responses. Nat. Med. 11, 1244-1249 (2005); 15). Briefly, syngeneic (BALB/c→BALC/c or C57BL/6J→C57BL/6J) and allogeneic (C57BL/6J→BALB/c or C3H.sw→C57BL/6J) recipients received lethal irradiation. On day −1, BALB/c recipients received a total of 800 cGy of irradiation (split dose separated by 3 hours) and B6 animals received a single dose of 1000 cGy. Donor splenic CD90.2+ T cells were magnetically separated using an autoMACs (Miltenyi Biotec; Bergisch Gladbach, Germany) and 0.5×10^6 to 2.5×10^6 T cells were transferred to BALB/c and C57BL/6J recipients. 5×10^6 donor whole or TCD bone marrow was transferred to all recipients. Survival was monitored daily and the recipient body weight and GVHD clinical scores were determined weekly, as described previously42. Histopathologic analysis of the gastrointestinal (GI) tract was performed as described (Reddy, P. et al. A crucial role for antigen-presenting cells and alloantigen expression in graft-versus-leukemia responses. Nat. Med. 11, 1244-1249 (2005)). Animals received vehicle (sterile PBS, 0.0004 g Na+ per dose) or sodium butyrate (10 mg/kg, 0.00004 g Na+ per dose) by flexible 20G-1.5″ intragastric gavage needle daily for 1 week, then every other day thereafter.\nSystemic administration of HDACi decreases acute GVHD (Reddy, P. et al. Histone deacetylase inhibitor suberoylanilide hydroxamic acid reduces acute graft-versus-host disease and preserves graft-versus-leukemia effect. Proc Natl Acad Sci USA 101, 3921-3926 (2004); Reddy, P. et al. Histone deacetylase inhibition modulates indoleamine 2,3-dioxygenasedependent DC functions and regulates experimental graft-versus-host disease in mice. J. Clin. Invest. 118, 2562-2573 (2008); Sun, Y. et al. Cutting edge: Negative regulation of dendritic cells through acetylation of the nonhistone protein STAT-3. J Immunol 182, 5899-5903 (2009)). It was therefore determined if increasing local levels of endogenous HDACi, butyrate, would impact GVHD severity. Again using the C57BL/6J into Balb/c model, vehicle control or butyrate was administered via daily intragastric gavage for one week, followed by administration every other day for the remainder of the experiment. […] Next, to further evaluate the magnitude of the butyrate-induced protective effect, GVHD mortality was determined utilizing the MHC disparate B6 into BALB/c model."}, "[2]": {"test_system": "primary CD326+ IECs", "assay": "Chromatin immunoprecipitation (acetylated histone-H4) of primary CD326+ IECs", "type": "cell-based, mouse", "protocol": "Primary CD326+ IECs were seeded on gelatin (Cell Biologics; Chicago, Ill.) coated cell culture dishes (100 mm) overnight followed by treatment with butyrate 1 mM for 24 hours. Cells were harvested and used for ChIP analysis using EZ-Magna ChIP kit from EMD Millipore (Billerica, Mass.) following the manufacturers instructions. Briefly, cells were cross-linked with 1% formaldehyde and extracted chromatin was sonicated using a Bioruptor Pico by Diagenode (Denville, N.J.) to yield DNA fragments predominately in the range of 200-1000 bp. Sonicated lysates were immunoprecipitated (IP) utilizing ChIP grade specific antibodies purchased from EMD Millipore for acetylated histone-H4 and RNA Pol II or IgG control antibody. De-crosslinked DNA was next examined by qPCR using primers targeting the promoter region of the target gene BCL-B (Bcl2110) (Forward: […] (SEQ ID NO:50); Reverse: […] (SEQ ID NO:51)), Slc5a8 (Forward: […] (SEQ ID NO:52); Reverse: […] (SEQ ID NO:53), and JAM (F11r) (Forward: […] (SEQ ID NO:54; Reverse: […] (SEQ ID NO:55)). IP efficiency of all samples was verified by qPCR analysis of the promoter region of Gapdh (Forward: […] (SEQ ID NO:56); Reverse: […] (SEQ ID NO:57)). Data analysis was determined as percent of input utilizing the equations: ΔCt[normalized ChIP]=(Ct[ChIP]−(Ct[Input]−[…])) and % Input=2(−ΔCt [normalized ChIP])."}, "[3]": {"settings": "intragastric butyrate daily 1 week then every other day, vs vehicle"}}, "data": [{"smiles": "CCCC(=O)[O-].[Na+]", "note": "[butyrate, sodium butyrate]", "values": [{"measurement": "histological scores in the intestines", "setting": "[1]; 21 days following BMT, major MHC mismatch model", "value": "decreased histological scores"}, {"measurement": "GVHD mortality / survival", "setting": "[1]; B6 into BALB/c, higher doses of T cells", "value": "significant GVHD survival benefit"}, {"measurement": "GVHD clinical scores", "setting": "[1]; [3]", "value": "decreased"}, {"measurement": "survival", "setting": "[1]; [3]", "value": "increased survival"}, {"measurement": "weight loss", "setting": "[1]; [3]", "value": "decreased weight loss"}, {"measurement": "association of acetylated histone H4 in the promoter region of Slc5a8", "setting": "[2]; IECs (CD326+) treated with butyrate 1 mM 24 hours", "value": "increased association"}, {"measurement": "acetylation of histone H4 at the promoter region of Bcl2110", "setting": "[2]; butyrate treated IECs (CD326+)", "value": "associated with the promoter region"}, {"measurement": "acetylation of histone H4 at the promoter region of F11r", "setting": "[2]; butyrate treated IECs (CD326+)", "value": "associated with the promoter region"}]}]}
